Legend:
[1] = molecular target: T1, KRAS-WT and SOS1 proteins (Homo sapiens, UniProt Q07889); assay: KRAS-WT/SOS1 binding assay (HTRF); conditions: Tag1-SOS1 / Tag2-KRAS-WT, 10 μM GTP, read-out: Activity Data in Kras: SOS1 Assay, Wild Type
T1 construct: purchased Cisbio 63ADK000CB15PEG
T1 sequence (Q07889 1-1333): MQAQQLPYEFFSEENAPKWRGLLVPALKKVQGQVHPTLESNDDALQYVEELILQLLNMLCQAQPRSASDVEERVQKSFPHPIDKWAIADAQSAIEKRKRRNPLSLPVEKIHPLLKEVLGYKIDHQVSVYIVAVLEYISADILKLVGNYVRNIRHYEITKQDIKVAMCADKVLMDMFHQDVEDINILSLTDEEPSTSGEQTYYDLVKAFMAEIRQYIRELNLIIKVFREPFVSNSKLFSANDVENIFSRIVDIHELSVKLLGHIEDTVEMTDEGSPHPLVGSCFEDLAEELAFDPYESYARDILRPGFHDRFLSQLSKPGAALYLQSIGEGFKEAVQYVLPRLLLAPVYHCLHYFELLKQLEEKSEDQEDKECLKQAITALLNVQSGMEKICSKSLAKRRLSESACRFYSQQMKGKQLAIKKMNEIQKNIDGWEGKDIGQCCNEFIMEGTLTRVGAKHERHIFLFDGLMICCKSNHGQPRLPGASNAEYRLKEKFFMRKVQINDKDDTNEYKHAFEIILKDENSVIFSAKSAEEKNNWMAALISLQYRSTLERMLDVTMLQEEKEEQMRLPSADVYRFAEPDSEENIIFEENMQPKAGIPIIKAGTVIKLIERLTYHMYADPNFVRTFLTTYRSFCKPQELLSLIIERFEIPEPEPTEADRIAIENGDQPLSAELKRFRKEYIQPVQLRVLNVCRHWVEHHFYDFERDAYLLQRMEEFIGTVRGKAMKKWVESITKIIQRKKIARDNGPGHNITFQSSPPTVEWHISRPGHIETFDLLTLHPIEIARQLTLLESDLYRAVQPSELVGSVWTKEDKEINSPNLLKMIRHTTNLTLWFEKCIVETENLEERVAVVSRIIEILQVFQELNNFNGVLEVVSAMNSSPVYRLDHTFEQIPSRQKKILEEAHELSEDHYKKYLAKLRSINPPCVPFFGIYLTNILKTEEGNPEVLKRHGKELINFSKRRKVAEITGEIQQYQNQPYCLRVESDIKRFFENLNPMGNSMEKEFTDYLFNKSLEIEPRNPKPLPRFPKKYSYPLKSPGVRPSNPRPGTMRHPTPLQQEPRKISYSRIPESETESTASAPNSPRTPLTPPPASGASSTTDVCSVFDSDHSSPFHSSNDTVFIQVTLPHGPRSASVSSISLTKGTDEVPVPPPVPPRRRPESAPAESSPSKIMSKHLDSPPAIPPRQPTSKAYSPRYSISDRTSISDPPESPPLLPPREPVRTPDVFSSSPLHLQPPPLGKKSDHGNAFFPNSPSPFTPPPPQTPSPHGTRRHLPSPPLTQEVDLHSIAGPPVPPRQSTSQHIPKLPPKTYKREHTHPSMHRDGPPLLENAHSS
Procedure: (§1) KRAS-WT (or G12C/G12D/G12V)/SOS1 Binding Assay
(§2) Low IC50 values are indicative of high potency of the SOS1 inhibitor compounds in this assay setting.
(§3) The KRAS-WT (or G12C/G12D/G12V)/SOS1 binding assay is performed using an assay kit (Cisbio, Cat #63ADK000CB15PEG or 63ADK000CB16PEG/63ADK000CB17PEG/63ADK000CB18PEG) according to the procedure recommended by the manufacturer. • 1) Thaw and prepare the working solution of Tag1-SOS1 protein and Tag2-KRAS-WT (or G12C/G12D/G12V) protein with final concentration of 10 μM GTP (Sigma, Cat #V900868). • 2) Thaw and prepare the working solution of anti-Tag1-Tb^3+ anti-Tag2-XL665. • 3) Dispense 2 μL of serially diluted compound, 4 μL of Tag1-SOS1 protein and 4 μL of Tag2-KRAS-WT (or G12C/G12D/G12V) protein with GTP into a ProxiPlate-384 Plus, white 384-shallow well microplate (PerkinElmer, Cat #6008280). • 4) Incubate the plate for 15 minutes at room temperature. • 5) Dispense 10 μL of pre-mixed anti-Tag1-Tb^3+ and anti-Tag2-XL665 into the plate. • 6) Seal the plate and incubate for 2 hours at room temperature. • 7) Remove the plate sealer and read on PHERAstar FS (BMG LABTECH, PHERAstar FS). • 8) Calculate the ratio of the acceptor and donor emission signals for each individual well using the following equation.
(§4) [formula] • 9) IC50 values are fitted and calculated by HTRF signal values and log of compound concentrations to nonlinear regression [Log (inhibitor) vs. Response−Variable Slope (four parameters)] using the GraphPad Prism 8.0.

[2] = molecular target: T2, KRAS G12D and SOS1 proteins (Homo sapiens, UniProt Q07889); assay: KRAS-G12D/SOS1 binding assay (HTRF); conditions: Tag1-SOS1 / Tag2-KRAS G12D, 10 μM GTP
T2 construct: purchased Cisbio 63ADK000CB17PEG
T2 sequence (Q07889 1-1333): T1 sequence (Q07889 1-1333)
Procedure: as §1, §2, §3, §4

| Compound | IC50 [1] [nM] | IC50 [2] [nM] |
| --- | --- | --- |
| Cc1nc(N[C@H](C)c2cccc3c2CCC3(F)F)c2cc(N3CCOCC3)c3nncn3c2n1 [Example 23, N-[(1R)-1-(1,1-difluoro-2,3-dihydro-1H-inden-4-yl)ethyl]-12-methyl-7-(morpholin-4-yl)-2,4,5,11,13-pentaazatricyclo[7.4.0.0^{2,6}]trideca-1(9),3,5,7,10,12-hexaen-10-amine] | < 100 | < 100 |
| Cc1nc(N[C@H](C)c2cccc(C(F)(F)CO)c2)c2cc(-c3ccc(=O)n(C)c3)c3c(cnn3C)c2n1 [Example 24, (R)-5-(4-((1-(3-(1,1-difluoro-2-hydroxyethyl)phenyl)ethyl)amino)-2,7-dimethyl-7H-pyrazolo[3,4-h]quinazolin-6-yl)-1-methylpyridin-2(1H)-one] | < 100 | < 100 |
| Cc1nc(N[C@H](C)c2cccc3c2CCC3(F)F)c2cc(-c3ccc(=O)n(C)c3)c3c(cnn3C)c2n1 [Example 25, (R)-5-(4-((1-(1,1-difluoro-2,3-dihydro-1H-inden-4-yl)ethyl)amino)-2,7-dimethyl-7H-pyrazolo[3,4-h]quinazolin-6-yl)-1-methylpyridin-2(1H)-one] | < 100 | < 100 |
| Cc1nc(N[C@H](C)c2cc(C(C)(C)O)cc(C(F)(F)F)c2)c2cc(-c3ccc(=O)n(C)c3)c3c(cnn3C)c2n1 [Example 26, (R)-5-(4-((1-(3-(2-hydroxypropan-2-yl)-5-(trifluoromethyl)phenyl)ethyl)amino)-2,7-dimethyl-7H-pyrazolo[3,4-h]quinazolin-6-yl)-1-methylpyridin-2(1H)-one] | > 5000 | > 5000 |
| Cc1nc(N[C@H](C)c2cccc(C(F)(F)CO)c2)c2cc(-c3ccc(=O)n(C)c3)c3[nH]ncc3c2n1 [Example 27, (R)-5-(4-((1-(3-(1,1-difluoro-2-hydroxyethyl)phenyl)ethyl)amino)-2-methyl-7H-pyrazolo[3,4-h]quinazolin-6-yl)-1-methylpyridin-2(1H)-one] | < 100 | < 100 |
| Cc1nc(N[C@H](C)c2cccc(C(F)(F)CO)c2)c2cc(-c3ccc(=O)[nH]c3)c3[nH]ncc3c2n1 [Example 28, (R)-5-(4-((1-(3-(1,1-difluoro-2-hydroxyethyl)phenyl)ethyl)amino)-2-methyl-7H-pyrazolo[3,4-h]quinazolin-6-yl)pyridin-2(1H)-one] | < 100 | < 100 |
| Cc1nc(N[C@H](C)c2cccc(C(F)(F)CO)c2)c2cc(-c3ccc(=O)[nH]c3)c3c(cnn3C)c2n1 [Example 29, (R)-5-(4-((1-(3-(1,1-difluoro-2-hydroxyethyl)phenyl)ethyl)amino)-2,7-dimethyl-7H-pyrazolo[3,4-h]quinazolin-6-yl)pyridin-2(1H)-one] | < 100 | < 100 |
| Cc1nc(N[C@H](C)c2cccc(C(F)(F)CO)c2)c2cc(C3CCN(C)CC3)c3c(cnn3C)c2n1 [Example 30, (R)-2-(3-(1-((2,7-dimethyl-6-(1-methylpiperidin-4-y1)-7H-pyrazolo[3,4-h]quinazolin-4-yl)amino)ethyl)phenyl)-2,2-difluoroethan-1-ol] | < 100 | < 100 |
| COCC(F)(F)c1cccc([C@@H](C)Nc2nc(C)nc3c2cc(-c2ccc(=O)n(C)c2)c2c3cnn2C)c1 [Example 31, (R)-5-(4-((1-(3-(1,1-difluoro-2-methoxyethyl)phenyl)ethyl)amino)-2,7-dimethyl-7H-pyrazolo[3,4-h]quinazolin-6-yl)-1-methylpyridin-2(1H)-one] | < 100 | < 100 |
| C[C@@H](Nc1nc(C(F)(F)F)nc2c1cc(-c1ccc(=O)n(C)c1)c1c2cnn1C)c1cccc(C(F)(F)CO)c1 [Example 32, (R)-5-(4-((1-(3-(1,1-difluoro-2-hydroxyethyl)phenyl)ethyl)amino)-7-methyl-2-(trifluoromethyl)-7H-pyrazolo[3,4-h]quinazolin-6-yl)-1-methylpyridin-2(1H)-one] | 100 to 500 | 100 to 500 |
| C[C@@H](Nc1nc(C(F)(F)F)nc2c1cc(-c1ccc(=O)n(C)c1)c1c2cnn1C)c1cc(F)cc(C(F)(F)CO)c1 [Example 33, (R)-5-(4-((1-(3-(1,1-difluoro-2-hydroxyethyl)-5-fluorophenyl)ethyl)amino)-7-methyl-2-(trifluoromethyl)-7H-pyrazolo[3,4-h]quinazolin-6-yl)-1-methylpyridin-2(1H)-one] | 100 to 500 | 100 to 500 |
| Cc1nc(N[C@H](C)c2cccc(C(F)(F)CO)c2)c2cc(-c3ccc(=O)n(C)c3)c3nn(C(F)(F)F)cc3c2n1 [Example 34, 5-(4-{[(1R)-1-[3-(1,1-difluoro-2-hydroxyethyl)phenyl]ethyl]amino}-2-methyl-8-(trifluoromethyl)-8H-pyrazolo[3,4-h]quinazolin-6-yl)-1-methyl-1,2-dihydropyridin-2-one] | 100 to 500 | 100 to 500 |
| Cc1nc(N[C@H](C)c2cccc(C(F)(F)F)c2)c2cc(OC3CCOC3)c3c(cnn3C)c2n1 (stereo partly drawn) [Example 35, 2,7-dimethyl-6-(oxolan-3-yloxy)-N-[(1R)-1-[3-(trifluoromethyl)phenyl]ethyl]-7H-pyrazolo[3,4-h]quinazolin-4-amine] | 100 to 500 | 100 to 500 |
| Cc1nc(N[C@H](C)c2cccc3c2CCC3(F)F)c2cc(O[C@H]3CCOC3)c3c(cnn3C)c2n1 [Example 36, N-((R)-1-(1,1-difluoro-2,3-dihydro-1H-inden-4-yl)ethyl)-2,7-dimethyl-6-(((S)-tetrahydrofuran-3-yl)oxy)-7H-pyrazolo[3,4-h]quinazolin-4-amine] | < 100 | < 100 |
| Cc1nc(N[C@H](C)c2cc(N)cc(C(F)(F)F)c2)c2cc(O[C@H]3CCOC3)c3c(cnn3C)c2n1 [Example 37, N-((R)-1-(3-amino-5-(trifluoromethyl)phenyl)ethyl)-2,7-dimethyl-6-(((S)-tetrahydrofuran-3-yl)oxy)-7H-pyrazolo[3,4-h]quinazolin-4-amine] | < 100 | < 100 |
| Cc1nc(N[C@H](C)c2cccc(C(F)(F)CO)c2)c2cc(O[C@H]3CCOC3)c3c(cnn3C)c2n1 [Example 38, 2-(3-((R)-1-((2,7-dimethyl-6-(((S)-tetrahydrofuran-3-yl)oxy)-7H-pyrazolo[3,4-h]quinazolin-4-yl)amino)ethyl)phenyl)-2,2-difluoroethan-1-ol] | < 100 | < 100 |
| Cc1nc(N[C@H](C)c2cccc(C(F)(F)CO)c2)c2cc(OC3CC(F)(F)C3)c3c(cnn3C)c2n1 [Example 39, (R)-2-(3-(1-((6-(3,3-difluorocyclobutoxy)-2,7-dimethyl-7H-pyrazolo[3,4-h]quinazolin-4-yl)amino)ethyl)phenyl)-2,2-difluoroethan-1-ol] | 100 to 500 | 100 to 500 |

From patent publication US20240109891A1, “NOVEL SUBSTITUTED TRICYCLIC AZA-HETEROCYCLES AS SOS1 INHIBITORS” (Viva Star Biosciences (Suzhou) Co., Ltd., priority 2021, published 2024)
